Measurements: patent US20130310256A1, “HERBICIDAL COMPOSITIONS COMPRISING 4-AMINO-3-CHLORO-5-FLUORO-6-(4-CHLORO-2-FLUORO-3-METHOXYPHENYL) PYRIDINE-2-CARBOXYLIC ACID OR A DERIVATIVE THEREOF AND VLCFA AND LIPID SYNTHESIS INHIBITING HERBICIDES” (DOW AGROSCIENCES LLC, priority 2008, published 2013)

What was measured:
STEME = assay: Example III: post-emergence foliar-applied weed control in cereal crops, greenhouse; assay type: in vivo, Stellaria media (L.) Vill.; conditions: 21 DAA
Method: (§1) Seeds of the desired test plant species were planted in Sun Gro MetroMix® 306 planting mixture, which typically has a pH of 6.0 to 6.8 and an organic matter content of about 30 percent, in plastic pots with a surface area of 103.2 square centimeters (cm^2). When required to ensure good germination and healthy plants, a fungicide treatment and/or other chemical or physical treatment was applied. The plants were grown for 7-36 days in a greenhouse with an approximate 14 hour photoperiod which was maintained at about 18° C. during the day and 17° C. during the night. Nutrients and water were added on a regular basis and supplemental lighting was provided with overhead metal halide 1000-Watt lamps as necessary. The plants were employed for testing when they reached the second or third true leaf stage.
(§2) Treatments consisted of the benzyl ester of 4-amino-3-chloro-5-fluoro-6-(4-chloro-2-fluoro-3-methoxy-phenyl)pyridine-2-carboxylic acid (Compound A), formulated as an SC (suspension concentrate), and a second cereal herbicide alone and in combination.
(§3) Measured aliquots of the benzyl ester of 4-amino-3-chloro-5-fluoro-6-(4-chloro-2-fluoro-3-methoxy-phenyl)pyridine-2-carboxylic acid (Compound A) were placed in 25 milliliter (mL) glass vials and diluted in a volume of 1.25% (v/v) Agri-dex crop oil concentrated to obtain stock solutions. Compound requirements are based upon a 12 mL application volume at a rate of 187 liters per hectare (L/ha). Spray solutions of the second cereal herbicide and experimental compound mixtures were prepared by adding the stock solutions to the appropriate amount of dilution solution to form 12 mL spray solution with active ingredients in two- and three-way combinations. Formulated compounds were applied to the plant material with an overhead Mandel track sprayer equipped with an 8002E nozzle calibrated to deliver 187 L/ha over an application area of 0.503 square meters (m^2) at a spray height of 18 inches (46 cm) above average plant canopy. Control plants were sprayed in the same manner with the solvent blank.
(§4) The treated plants and control plants were placed in a greenhouse as described above and watered by sub-irrigation to prevent wash-off of the test compounds. After 20-22 days, the condition of the test plants as compared with that of the control plants was determined visually and scored on a scale of 0 to 100 percent where 0 corresponds to no injury and 100 corresponds to complete kill.
(§5) Colby's equation was used to determine the herbicidal effects expected from the mixtures (Colby, S. R. 1967. Calculation of the synergistic and antagonistic response of herbicide combinations. Weeds 15:20-22.).

SINAR = assay: as above; assay type: in vivo, Sinapis arvensis L.; conditions: 21 DAA
Method: as §1, §2, §3, §4, §5

ISCRU = assay: Example I: postemergence foliar-applied weed control, greenhouse; assay type: in vivo, Ischaemum rugosum Salisb. (saramollagrass); conditions: 21 DAA
From the text: Seeds or nutlets of the desired test plant species were planted in a soil matrix prepared by mixing a loam or sandy loam soil (e.g., 28.6 percent silt, 18.8 percent clay, and 52.6 percent sand, with a pH of about 5.8 and an organic matter content of about 1.8 percent) and calcareous grit in an 80 to 20 ratio. The soil matrix was contained in plastic pots with a volume of 1 quart and a surface area of 83.6 square centimeters (cm^2). When required to ensure good germination and healthy plants, a fungicide treatment and/or other chemical or physical treatment was applied. The plants were grown for 8-22 days in a greenhouse with an approximate 14 hr photoperiod which was maintained at about 29° C. during the day and 26° C. during the night. Nutrients (Peters Excel® 15-5-15 5-Ca 2-Mg and iron chelate) were applied in the irrigation solution as needed and water was added on a regular basis. Supplemental lighting was provided with overhead metal halide 1000-Watt lamps as necessary. The plants were employed for testing when they reached the first through fourth true leaf stage.
Treatments consisted of the acid or esters of 4-amino-3-chloro-5-fluoro-6-(4-chloro-2-fluoro-3-methoxy-phenyl)pyridine-2-carboxylic acid (Compound A), each formulated as an SC (suspension concentrate), and various herbicidal components alone and in combination. Forms of compound A were applied on an acid equivalent basis.
Other herbicidal components were applied on an active ingredient basis and included very long chain fatty acid (VLCFA) synthesis-inhibiting and fatty acid/lipid synthesis-inhibiting herbicides acetochlor (technical grade material), acetochlor+dichlormid formulated as Topnotch®, pretilachlor (technical grade material), butachlor formulated as Butachlor EC, fentrazamide formulated as Fentrazamide EC, thiobencarb formulated as Bolero® 8EC, cafenstrole formulated as Himeadow® WP or Lapost® Flowable, benfuresate formulated as Full Shot®, dimethenamid-P formulated as Outlook®, indanofan (technical grade material), flufenacet formulated as Define® DF, mefenacet (technical grade material), S-metolachlor formulated as Dual® II Magnum, pethoxamid formulated as Successor® 600, and pyroxasulfone (technical grade material).
Treatment requirements were calculated based upon the rates being tested, the concentration of active ingredient or acid equivalent in the formulation, and a 12 mL application volume at a rate of 187 L/ha.
For treatments comprised of formulated compounds, measured amounts of compounds were placed individually in 25 mL glass vials and diluted in a volume of 1.25% (v/v) Agri-Dex® crop oil concentrated to obtain 12× stock solutions. […]

SASKR = assay: Example III: post-emergence foliar-applied weed control in cereal crops, greenhouse; assay type: in vivo, Salsola tragus L.; conditions: 21 DAA
Method: as §1, §2, §3, §4, §5

CHEAL = assay: as above; assay type: in vivo, Chenopodium album L.; conditions: 21 DAA
Method: as §1, §2, §3, §4, §5

CYPES = assay: Example I: postemergence foliar-applied weed control, greenhouse; assay type: in vivo, Cyperus esculentus L. (yellow nutsedge)
KCHSC = assay: Example III: post-emergence foliar-applied weed control in cereal crops, greenhouse; assay type: in vivo, Kochia scoparia (L.) Schrad.; conditions: 21 DAA
Method: as §1, §2, §3, §4, §5

SMILES: COc1c(Cl)ccc(-c2nc(C(=O)OCc3ccccc3)c(Cl)c(N)c2F)c1F [Compound A Benzyl Ester, benzyl ester of 4-amino-3-chloro-5-fluoro-6-(4-chloro-2-fluoro-3-methoxy-phenyl)pyridine-2-carboxylic acid]
- Visual Weed Control STEME Obs (STEME; 2.5 gai/ha): 25%
- Visual Weed Control STEME Obs (STEME; 5 gai/ha): 25%
- Visual Weed Control STEME Obs (STEME; 10 gai/ha): 27%
- Visual Weed Control SINAR Obs (SINAR; 2.5 gai/ha): 70%
- Visual Weed Control SINAR Obs (SINAR; 5 gai/ha): 73%
- Visual Weed Control Obs (ISCRU; 8 gae/ha): 20%
- Visual Weed Control Obs (ISCRU; 16 gae/ha): 0%
- Visual Weed Control SASKR Obs (SASKR; 2.5 gai/ha): 15%
- Visual Weed Control SASKR Obs (SASKR; 5 gai/ha): 50%
- Visual Weed Control SASKR Obs (SASKR; 10 gai/ha): 67%
- Visual Weed Control CHEAL Obs (CHEAL; 2.5 gai/ha): 50%
- Visual Weed Control CHEAL Obs (CHEAL; 5 gai/ha): 58%
- Visual Weed Control (%) - 20 DAA CYPES Obs (CYPES; 8 gae/ha): 0%
- Visual Weed Control (%) - 21 DAA CYPES Obs (CYPES; 8 gae/ha): 85%
- Visual Weed Control (%) - 20 DAA CYPES Obs (CYPES; 16 gae/ha): 75%
- Visual Weed Control KCHSC Obs (KCHSC; 2.5 gai/ha): 20%
- Visual Weed Control KCHSC Obs (KCHSC; 5 gai/ha): 41%
- Visual Weed Control KCHSC Obs (KCHSC; 10 gai/ha): 62%
